From patent publication US6355640B1, “Pyrazolopyridine adenosine antagonists” (Fujisawa Pharmaceutical Co., Ltd., priority 1993, dated 2002)

| melting point | SMILES |
| --- | --- |
| 249.5 to 250.5 °C | O=C(CC1=C(n2nc(-c3c(-c4ccccc4)nn4ccccc34)ccc2=O)CCCC1)N1CCN(C(c2ccccc2)(c2ccccc2)c2ccccc2)CC1 [Example 82, 3-[2-{2-(4-Triphenylmethylpiperazin-1-ylcarbonyl)methyl-1-cyclohexenyl}-3-oxo-2,3-dihydropyridazin-6-yl]-2-phenylpyrazolo[1,5-a]pyridine] |
| 101 to 105 °C | CNC1CCN(C(=O)CC2=C(n3nc(-c4c(-c5ccccc5)nn5ccccc45)ccc3=O)CCCC2)CC1 (hydrate or solvate) [Example 86, 3-[2-{2-(4-Methylaminopiperidinocarbonyl)methyl-1-cyclohexenyl}-3-oxo-2,3-dihydropyridazin-6-yl]-2-phenylpyrazolo[1,5-a]pyridine] |
| 229 to 230 °C (dec.) | C=C1CCCCC1n1nc(-c2c(-c3ccccc3)nn3ccccc23)ccc1=O (centres unmarked) [Example 93, 3-[2-(2-methylenecyclohexyl)-3-oxo-2,3-dihydropyridazin-6-yl]-2-phenylpyrazolo[1,5-a]pyridine] |
| 188 to 191 °C | CN1CCN(C(=O)CC2=C(n3nc(-c4c(-c5ccccc5)nn5ccccc45)ccc3=O)CCCC2)CC1.Cl (hydrate or solvate) |
| 112 to 114 °C | O=C1CCCCCC1n1nc(-c2c(-c3ccccc3)nn3ccccc23)ccc1=O (centres unmarked) [Example 11, 3-[2-(2-Oxocycloheptyl)-3-oxo-2,3-dihydropyridazin-6-yl]-2-phenylpyrazolo[1,5-a]pyridine] |
| 140 to 145 °C (dec.) | O=C1NCCCC1n1nc(-c2c(-c3ccccc3)nn3ccccc23)ccc1=O (centres unmarked) [Example 26, 3-[2-(2-Oxopiperidin-3-yl)-3-oxo-2,3-dihydropyridazin-6-yl]-2-phenylpyrazolo[1,5-a]pyridine] |
| 218 to 222 °C | O=C(O)[C@H]1CCC[C@H](n2nc(-c3c(-c4ccccc4)nn4ccccc34)ccc2=O)C1 (relative stereo) [Example 41, trans-3-(2-(3-Carboxycyclohexyl)-3-oxo-2,3-dihydropyridazin-6-yl]-2-phenylpyrazolo[1,5-a]pyridine] |
| 214 to 216 °C | O=C1CCCCC1Oc1ccc(-c2c(-c3ccccc3)nn3ccccc23)nn1 (single isomer, unassigned) [Example 2 (less polar compound), 3-[3-(2-Oxocyclohexyl)oxypyridazin-6-yl]-2-phenylpyrazolo[1,5-a]pyridine] |
| 212 to 213 °C | O=C(O)C[C@H]1CC[C@H](n2nc(-c3c(-c4ccccc4)nn4ccccc34)ccc2=O)C1 (relative stereo) [Example 40, trans-3-[2-(3-Carboxymethylcyclopentyl)-3-oxo-2,3-dihydropyridazin-6-yl]-2-phenylpyrazolo[1,5-a]pyridine] |
| 161 to 162 °C | NN=C1CCCCC1n1nc(-c2c(-c3ccccc3)nn3ccccc23)ccc1=O (centres unmarked) [Example 88, 3-[2-(2-Hydrazonocyclohexyl)-3-oxo-2,3-dihydropyridazin-6-yl]-2-phenylpyrazolo[1,5-a]pyridine] |
| 208 °C (dec.) | O=C(O)CON=C1CCCCC1n1nc(-c2c(-c3ccccc3)nn3ccccc23)ccc1=O (centres unmarked) [Example 57, 3-[2-(2-Carboxymethoxyiminocyclohexyl)-3-oxo-2,3-dihydropyridazin-6-yl]-2-phenylpyrazolo[1,5-a]pyridine] |
| 184 to 185 °C | O=C(O)CCC1=C(n2nc(-c3c(-c4ccccc4)nn4ccccc34)ccc2=O)CCCC1 [Example 52, 3-[2-{2-(2-carboxyethyl)-1-cyclohexenyl}-3-oxo-2,3-dihydropyridazin-6-yl]-2-phenylpyrazolo[1,5-a]-pyridine] |
| 169 to 172 °C | COC(=O)[C@H]1CC[C@@H](n2nc(-c3c(-c4ccccc4)nn4ccccc34)ccc2=O)[C@H](O)C1 (relative stereo) [Example 8, 3-[2-{(1R*,2R*,4S*)-2-Hydroxy-4-methoxycarbonyl-cyclohexyl}-3-oxo-2,3-dihydropyridazin-6-yl]-2-phenylpyrazolo[1,5-a]pyridine] |
| 180.5 to 182.5 °C | O=C(CC1=C(n2nc(-c3c(-c4ccccc4)nn4ccccc34)ccc2=O)CCCC1)N1CCSCC1 [Example 80, 3-[2-{2-(Thiomorpholin-4-ylcarbonyl)methyl-1-cyclohexenyl}-3-oxo-2,3-dihydropyridazin-6-yl]-2-phenylpyrazolo[1,5-a]pyridine] |
| 163 °C | COc1ccccc1-n1nc(-c2c(-c3ccccc3)nn3ccccc23)ccc1=O [Example 101, 3-[2-(2-Methoxyphenyl)-3-oxo-2,3-dihydropyridazin-6-yl]-2-phenylpyrazolo[1,5-a]pyridine] |
| 164 °C | O=C(O)C1CCCCC1n1nc(-c2c(-c3ccccc3)nn3ccccc23)ccc1=O (centres unmarked) [Example 109, 3-[2-(2-carboxycyclohexyl)-3-oxo-2,3-dihydropyridazin-6-yl]-2-phenylpyrazolo[1,5-a]pyridine] |
| 178 to 179 °C | O=C(CC1=C(n2nc(-c3c(-c4ccccc4)nn4ccccc34)ccc2=O)CCCC1)N1CCCC1 [Example 84, 3-[2-{2-(Pyrrolidin-1-ylcarbonyl)methyl-1-cyclohexenyl}-3-oxo-2,3-dihydropyridazin-6-yl]-2-phenylpyrazolo[1,5-a]pyridine] |
| 156 to 158 °C | CC1CC(C)(C)N=C(/C=C2\CCCCC2n2nc(-c3c(-c4ccccc4)nn4ccccc34)ccc2=O)O1 (centres unmarked) [Example 97(1), (E)-3-[2-{2-(4,4,6-Trimethyl-5,6-dihydro-4H-1,3-oxazin-2-yl)methylenecyclohexyl}-3-oxo-2,3-dihydropyridazin-6-yl]-2-phenylpyrazolo[1,5-a]pyridine] |
| 145 to 150 °C | O=C(O)CN1CCCC(n2nc(-c3c(-c4ccccc4)nn4ccccc34)ccc2=O)C1=O (centres unmarked) [Example 117, 3-[2-(1-Carboxymethyl-2-oxopiperidin-3-yl)-3-oxo-2,3-dihydropyridazin-6-yl]-2-phenylpyrazolo[1,5-a]pyridine] |
| 56 to 60 °C | CCOC(=O)CN(C)C(=O)CC1=C(n2nc(-c3c(-c4ccccc4)nn4ccccc34)ccc2=O)CCCC1 [Example 68, 3-[2-{2-(N-ethoxycarbonylmethyl-N-methylcarbamoyl)methyl-1-cyclohexenyl}-3-oxo-2,3-dihydropyridazin-6-yl]-2-phenylpyrazolo[1,5-a]pyridine] |
| 204 to 205 °C | NC(=O)CC1=C(n2nc(-c3c(-c4ccccc4)nn4ccccc34)ccc2=O)CCCC1 [Example 69, 3-[2-(2-Carbamoylmethyl-1-cyclohexenyl)-3-oxo-2,3-dihydropyridazin-6-yl]-2-phenylpyrazolo[1,5-a]pyridine] |
| 166 to 168 °C | CCOC(=O)C=C1CCC(n2nc(-c3c(-c4ccccc4)nn4ccccc34)ccc2=O)CC1 (centres unmarked) [Example 94, 3-[2-(4-ethoxycarbonylmethylenecyclohexyl)-3-oxo-2,3-dihydropyridazin-6-yl]-2-phenylpyrazolo[1,5-a]-pyridine] |

| SMILES | melting point |
| --- | --- |
| CC(C)(C)OC(=O)/C=C1\CCCCC1n1nc(-c2c(-c3ccccc3)nn3ccccc23)ccc1=O (centres unmarked) [Example 95(3), (E)-3-[2-{2-(tert-Butoxycarbonylmethylene)-cyclohexyl}-3-oxo-2,3-dihydropyridazin-6-yl]-2-phenylpyrazolo[1,5-a]pyridine] | 110 to 116 °C |
